Results reported in US10653651B2, “Kit for treating cancer with low molecular weight components of aurin tricarboxylic acid complex” (Aurin Biotech Inc., priority 2014, dated 2020).
pIC50: −log10 of the molar value. Read-outs that look alike come from different tables or passages of the source.

Legend:
[1] = system: DOHH2 human B-cell carcinoma cells; assay: Lactic dehydrogenase release from DOHH2 cells; format: cell-based
Method: Experiment 4 was designed to confirm apoptotic cell death of U251 cells induced by ATA, AQA, AHA, and ATAC by measuring release of lactic dehydrogenase into the cell medium. For serum lactate dehydrogenase determination, reaction supernatants ([…]) were pipetted into the wells of 96-well plates, followed by the addition of […] lactate solution (36 mg/mL in PBS) and […] INT (iodonitrotetrazolium chloride, 2-(4-iodophenyl)-3-(4-nitrophenyl)-5-phenyl-2H-tetrazolium chloride) solution (2 mg/mL in PBS). The enzymatic reaction was started by addition of […] of NAD^+/diaphorase solution (3 mg/mL NAD^+; 2.3 mg solid/mL diaphorase). After 1 h, optical densities were measured with a microplate reader using a 490 nm filter. The amount of LDH released was expressed as a percentage of the value obtained in comparative cells where cells were 100% lysed by 1% Triton X-100.
Experiment 16 was designed to determine if apoptotic cell death of DOHH2 human B-cell carcinoma cells was induced by ATA, AQA, AHA, and ATAC as determined by the release of lactic dehydrogenase into the cell medium. The protocol was identical to that used in Experiment 9(d) except that DOHH2 human B-cell carcinoma cells were used.

[2] = system: human colorectal adenocarcinoma cell line LS180; assay: LS180 cell growth in zymosan-activated human serum (MTT cell viability); format: cell-based; settings: LS180 cells, EMEM, 15% human serum, n=4, read-out: IC50, inhibition of LS180 cell growth induced by zymosan-activated human serum complement
Method: Experiment 1 was designed to determine the effect of ATA, AHA, AQA and ATAC on U251 cell growth in the presence of complement activated human serum. In Experiment 1(a), U251 cells were treated with various concentrations of human serum (1, 5, 7.5, 10, 12.5, 15%) in DMEM and incubated with 1 μg/mL zymosan at 37° C. for 72 h. Control U251 cells (CON) were incubated in fresh DMEM only. As a further control U251 cells were treated with 10% human serum heated at 56° C. for 30 min to heat inactivate complement (HIS) before incubation with 1 μg/ml zymosan. In Experiment 1(b), U251 cells were treated with various concentrations of ATAC, ATA, AQA and AHA (0.1, 1, 5, 10, 30, 50 μM) in DMEM with 15% human serum and incubated with 1 μg/mL zymosan at 37 ° C. for 72 h. In both Experiments 1(a) and 1(b), following incubation, cell viability was evaluated by MTT (3-[4,5-dimethylthiazol-2-yl]-2,5 diphenyl tetrazolium bromide) assays by adding MTT to the cell cultures to reach a final concentration of 1 mg/mL. Following a 1 h incubation at 37° C., the dark crystals formed were dissolved by adding a SDS/DMF extraction buffer (300 μL, 20% sodium dodecyl sulfate, 50% N,N-dimethylformamide, pH 4.7). Plates were subsequently incubated overnight at 37° C. and optical densities at 570 nm were measured by transferring 100 μL aliquots to 96-well plates and using a plate reader with a corresponding filter.
Experiment 19 was designed to determine the effect of ATA, AQA, AHA and ATAC on growth of the human colorectal adenocarcinoma LS180 cell line. The protocol was identical to that used in Experiment 17(b) except that colorectal adenocarcinoma cells were utilized and the growth medium was EMEM.

Factor H = assay: Western blot of Factor H expression in BxPC-3 cells; format: cell-based, human; settings: 10 μM, 1 day, cell extract
Method: Experiment 2 was designed to determine the effect of ATA, AQA, and AHA on the expression and release of Factor H and VEGF by U251 cells. Cells were grown in DMEM for 24 h at 37° C., after which ATA, AQA, or AHA was added to the medium at a final concentration of 10 μM and incubation carried out for a further 24 h. The medium was drawn off, and the cells washed with PBS. Lysis buffer was then added to the cells. Forty microliters of the cell lysate, or the supernatant media, were loaded onto 12% polyacrylamide gels and separated under non-reducing conditions (70 V, 3-6 h). Following SDS-PAGE, proteins were transferred to a PVDF membrane (Bio-RadTM, CA) at 30 mA for 2 h. The membranes were blocked with 5% milk in PBS-T (80 mM Na2HPO4, 20 mM NaH2PO4, 100 mM NaCl, 0.1% Tween 20, pH 7.4) for 1 h, and incubated overnight at 4° C. with primary antibodies for Factor H (CytotechTM, goat 1/1000) and for VEGF (MilliporeTM, rabbit 1/2000). The membranes were then washed 3 times with PBST. They were then treated with an appropriate horseradish peroxidase (HRP)-conjugated secondary antibody for 3 h at room temperature. The secondary antibodies were anti-rabbit IgG (P0448, DAKOTM, Mississauga, Ontario, CA, 1/2,000) and anti-goat IgG (A[…], MilliporeTM, Billerica, Ma, 1/3,000). […]

U251 cells = assay: DNA laddering (apoptosis) in U251 cells; format: cell-based, human; settings: 10 μM, 1 day, agarose gel
Method: (§1) For determination of DNA laddering, which is indicative of DNA disintegration, cells were precipitated by centrifugation, washed, and lysed with […] Tris-HCl, 5 mM EDTA, and 3% Triton-X-100. The lysates were incubated at 37° C. for 1 h and then centrifuged at 12,000g for 10 min. They were treated with phenol/chloroform/isoamylalcohol (25:24:1) and chloroform/isoamylalcohol (24:1) twice each, and precipitated with 0.6 volume isopropyl alcohol and 0.1 volume 3 M sodium actate at −20° C. for 30 min. The precipitates were centrifuged at 12,000 g for 20 min, washed with 70% ethanol and dissolved with TE buffer containing 2 μg/mL bovine RNase. DNAs were electrophoresed in 10 μg/mL ethidium bromide containing 2% w/v agarose gel.

BxPC-3 cells = assay: DNA laddering (apoptosis) in BxPC-3 cells; format: cell-based, human; settings: 10 μM, 1 day, agarose gel
Method: as §1

VEGF = assay: Western blot of VEGF expression and release by BxPC-3 cells; format: cell-based, human; settings: 10 μM, 1 day; for expression of vascular endothelial growth factor (VEGF) in BxPC-3 cells: cell extract; for release of VEGF into the extracellular milieu by BxPC-3 cells: supernatant
Method: Experiment 2 was designed to determine the effect of ATA, AQA, and AHA on the expression and release of Factor H and VEGF by U251 cells. Cells were grown in DMEM for 24 h at 37° C., after which ATA, AQA, or AHA was added to the medium at a final concentration of 10 μM and incubation carried out for a further 24 h. The medium was drawn off, and the cells washed with PBS. Lysis buffer was then added to the cells. Forty microliters of the cell lysate, or the supernatant media, were loaded onto 12% polyacrylamide gels and separated under non-reducing conditions (70 V, 3-6 h). Following SDS-PAGE, proteins were transferred to a PVDF membrane (Bio-RadTM, CA) at 30 mA for 2 h. The membranes were blocked with 5% milk in PBS-T (80 mM Na2HPO4, 20 mM NaH2PO4, 100 mM NaCl, 0.1% Tween 20, pH 7.4) for 1 h, and incubated overnight at 4° C. with primary antibodies for Factor H (CytotechTM, goat 1/1000) and for VEGF (MilliporeTM, rabbit 1/2000). The membranes were then washed 3 times with PBST. They were then treated with an appropriate horseradish peroxidase (HRP)-conjugated secondary antibody for 3 h at room temperature. The secondary antibodies were anti-rabbit IgG (P0448, DAKOTM, Mississauga, Ontario, CA, 1/2,000) and anti-goat IgG (A[…], MilliporeTM, Billerica, Ma, 1/3,000). The bands were visualized with an enhanced chemiluminescence system and exposure to photographic film (Hyperfilm ECLTM, AmershamTM Pharmacia Biotech, Little Chalfont, UK). For reprobing of membranes with an alternative antibody, the membranes were treated with 10 mL of stripping buffer (3 mL of 1 M Tris-HCl pH 6.7, 10 mL of 10% SDS, 347 μL of 14 M mercaptoethanol, and 36.5 mL deionized water) at 60° C. for 1 h. The membrane was then placed on a shaking incubator for 30 min to clear it of all bound antibodies. The stripped membrane was then treated with a different primary antibody as previously described. Experiment 6 was designed to determine the effect of ATA, AQA, and AHA on the expression and release of Factor H and VEGF by BxPC-3 cells.

[3] = n=4, read-out: IC50, lactate dehydrogenase release from DOHH2 cells

Compound	pIC50 ([1]; Homo sapiens, DOHH-2, n=4, read-out: IC50, lactate dehydrogenase release from DOHH2 cells)	pIC50 [2]	expression of Factor H in BxPC-3 cells (Factor H)	DNA fragmentation (180 bp laddering) in U251 cells (U251 cells)	DNA fragmentation (180 bp laddering) in BxPC-3 cells (BxPC-3 cells)	pIC50 [1, 3]	expression of vascular endothelial growth factor (VEGF) in BxPC-3 cells (VEGF)	release of VEGF into the extracellular milieu by BxPC-3 cells (VEGF)
O=C(O)C1=CC(=C(c2ccc(O)c(C(=O)O)c2)c2ccc(O)c(C(=O)O)c2)C=CC1=O [ATA, aurin tricarboxylic acid]	5.31	5.32	–	–	–	–	–	–
aurin hexacarboxylic acid [AHA]	–	5.29	reducing expression	induced DNA fragmentation	induced DNA fragmentation	5.29	reducing expression	reducing release
aurin quadracarboxylic acid [AQA]	–	5.28	reducing expression	induced DNA fragmentation	induced DNA fragmentation	5.30	reducing expression	reducing release
